Tests used:
Assay type in all cases: in vivo
[1] = system: Brachiaria platyphylla (Griseb.) Nash or Urochloa platyphylla (Nash) R.D. Webster (BRAPP); assay: Postemergence foliar-applied herbicidal mixtures, weed control in direct seeded rice (greenhouse)
Excerpt: (§1) Seeds or nutlets of the desired test plant species were planted in a soil matrix prepared by mixing a loam or sandy loam soil (e.g., 28.6 percent silt, 18.8 percent clay, and 52.6 percent sand, with a pH of about 5.8 and an organic matter content of about 1.8 percent) and calcareous grit in an 80 to 20 ratio. The soil matrix was contained in plastic pots with a volume of 1 quart and a surface area of 83.6 square centimeters (cm^2). When required to ensure good germination and healthy plants, a fungicide treatment and/or other chemical or physical treatment was applied. The plants were grown for 8-22 days in a greenhouse with an approximate 14 h photoperiod which was maintained at about 29° C. during the day and 26° C. during the night. Nutrients (Peters Excel® 15-5-15 5-Ca 2-Mg and iron chelate) were applied in the irrigation solution as needed and water was added on a regular basis. Supplemental lighting was provided with overhead metal halide 1000-Watt lamps as necessary. The plants were employed for testing when they reached the first through fourth true leaf stage.
(§2) Treatments consisted of the acid or esters of 4-amino-3-chloro-5-fluoro-6-(4-chloro-2-fluoro-3-methoxy-phenyl) pyridine-2-carboxylic acid (Compound A), each formulated as an SC (suspension concentrate), and various herbicidal components alone and in combination. Forms of compound A were applied on an acid equivalent basis.
(§3) Other herbicidal components were applied on an active ingredient basis and included cellulose biosynthesis-inhibiting (CBI) herbicides isoxaben formulated as Gallery® 75DF and indaziflam formulated as Specticle® 20WSP.
(§4) Treatment requirements were calculated based upon the rates being tested, the concentration of active ingredient or acid equivalent in the formulation, and a 12 mL application volume at a rate of 187 L/ha.
(§5) For treatments comprised of formulated compounds, measured amounts of compounds were placed individually in 25 mL glass vials and diluted in a volume of 1.25% (v/v) Agri-Dex® crop oil concentrated to obtain 12× stock solutions. […] Application solutions were prepared by adding an appropriate amount of each stock solution (e.g., 1 mL) and diluted to the appropriate final concentrations with the addition of 10 mL of an aqueous mixture of 1.25% (v/v) crop oil concentrate so that the final spray solutions contained 1.25+/−0.05% (v/v) crop oil concentrate.
(§6) All stock solutions and applications solutions were visually inspected for compound compatibility prior to application. Spray solutions were applied to the plant material with an overhead Mandel track sprayer equipped with a 8002E nozzles calibrated to deliver 187 L/ha over an application area of 0.503 m^2 at a spray height of 18 to 20 inches (46 to 50 cm) above average plant canopy height. Control plants were sprayed in the same manner with the solvent blank.
(§7) The treated plants and control plants were placed in a greenhouse as described above and watered by sub-irrigation to prevent wash-off of the test compounds. After approximately 3 weeks, the condition of the test plants as compared with that of the untreated plants was determined visually and scored on a scale of 0 to 100 percent where 0 corresponds to no injury or growth inhibition and 100 corresponds to complete kill.
(§8) Colby's equation was used to determine the herbicidal effects expected from the mixtures (Colby, S. R. 1967. Calculation of the synergistic and antagonistic response of herbicide combinations. Weeds 15:20-22).
(§9) The following equation was used to calculate the expected activity of mixtures containing two active ingredients, A and B: Expected=A+B−(A×B/100)
(§10) A=observed efficacy of active ingredient A at the same concentration as used in the mixture.
(§11) B=observed efficacy of active ingredient B at the same concentration as used in the mixture.

[2] = system: Leptochloa chinensis (L.) Nees (LEFCH); assay: as above
Excerpt: as §1, §2, §3, §4, §5, §6, §7, §8, §9, §10, §11

[3] = system: Digitaria sanguinalis (L.) Scop. (DIGSA); assay: as above
Excerpt: as §1, §2, §3, §4, §5, §6, §7, §8, §9, §10, §11

[4] = system: Setaria faberi Herrm. (SETFA); assay: Pre-emergence soil-applied herbicidal mixtures for weed control (greenhouse); settings: Indaziflam 95 g ai/ha alone
Excerpt: (§12) Seeds or nutlets of the desired test plant species were planted in a soil matrix prepared by mixing a loam soil (e.g., 32 percent silt, 23 percent clay, and 45 percent sand, with a pH of about 6.5 and an organic matter content of about 1.9 percent) and calcareous grit in an 80 to 20 ratio. The soil matrix was contained in plastic pots with a volume of 1 quart and a surface area of 83.6 square centimeters (cm^2).
(§13) Treatments consisted of the benzyl ester of 4-amino-3-chloro-5-fluoro-6-(4-chloro-2-fluoro-3-methoxy-phenyl)pyridine-2-carboxylic acid (compound A) formulated as an SC (suspension concentrate) and various herbicidal components alone and in combination. Forms of compound A were applied on an acid equivalent basis.
(§14) Other herbicidal components were applied on an acid equivalent or active ingredient basis and included the cellulose biosynthesis inhibiting herbicides, isoxaben formulated as Gallery® 75DF and indaziflam formulated as Specticle® 20WSP.
as §4
as §5, with “oil concentrate (COC)” for “oil concentrated”, “(v/v) COC” for “(v/v) crop oil concentrate”, “contained 1.25%” for “contained 1.25+/−0.05%”, “(v/v) COC.” for “(v/v) crop oil concentrate.”
as §6, with “soil” for “plant material”, “18” for “18 to 20”, “(46” for “(46 to 50”, “pot” for “plant canopy”, “pots” for “plants”
(§15) The treated and control pots were placed in a greenhouse and top watered as needed. When required to ensure good germination and healthy plants, a fungicide treatment and/or other chemical or physical treatment was applied. The pots were maintained in a greenhouse with an approximate 14 hr. photoperiod which was maintained at about 29° C. during the day and 26° C. during the night. Nutrients (Peters® Excel 15-5-15 5-Ca 2-Mg) were applied in the irrigation solution as needed and water was added on a regular basis. Supplemental lighting was provided with overhead metal halide 1000-Watt lamps as necessary. After approximately 4 weeks, the condition of the test plants as compared with that of the untreated plants was determined visually and scored on a scale of 0 to 100 percent where 0 corresponds to no injury or growth inhibition and 100 corresponds to complete kill.
as §8, §9, §10, §11

[5] = system: Ipomoea hederacea (L.) Jacq. (IPOHE); assay: as above
Excerpt: as §12, §13, §14, §4
as §5, with “oil concentrate (COC)” for “oil concentrated”, “(v/v) COC” for “(v/v) crop oil concentrate”, “contained 1.25%” for “contained 1.25+/−0.05%”, “(v/v) COC.” for “(v/v) crop oil concentrate.”
as §6, with “soil” for “plant material”, “18” for “18 to 20”, “(46” for “(46 to 50”, “pot” for “plant canopy”, “pots” for “plants”
as §15, §8, §9, §10, §11

[6] = system: Xanthium strumarium L. (XANST); assay: as above
Excerpt: as §12, §13, §14, §4
as §5, with “oil concentrate (COC)” for “oil concentrated”, “(v/v) COC” for “(v/v) crop oil concentrate”, “contained 1.25%” for “contained 1.25+/−0.05%”, “(v/v) COC.” for “(v/v) crop oil concentrate.”
as §6, with “soil” for “plant material”, “18” for “18 to 20”, “(46” for “(46 to 50”, “pot” for “plant canopy”, “pots” for “plants”
as §15, §8, §9, §10, §11

[7] = Compound A Acid 4.38 g ae/ha alone
[8] = Compound A Acid 5.3 g ae/ha alone
[9] = Compound A Acid 8.75 g ae/ha alone
[10] = Compound A Acid 10.6 g ae/ha alone

## Cc1ccc2c(c1)[C@H](Nc1nc(N)nc(C(C)F)n1)[C@@H](C)C2 (stereo partly drawn) [Indaziflam, N-[(1R,2S)-2,3-dihydro-2,6-dimethyl-1H-inden-1-yl]-6-(1-fluoroethyl)-1,3,5-triazine-2,4-diamine, reference compound]
[1]; Indaziflam 21 g ai/ha alone
  Visual Weed Control (%) - 21 DAA Obs: 0%
[1]; Indaziflam 42 g ai/ha alone
  Visual Weed Control (%) - 21 DAA Obs: 15%
[2]; Indaziflam 42 g ai/ha alone
  Visual Weed Control (%) - 21 DAA Obs: 70%
[3]; Indaziflam 21 g ai/ha alone
  Visual Weed Control (%) - 21 DAA Obs: 50%
[3]; Indaziflam 42 g ai/ha alone
  Visual Weed Control (%) - 21 DAA Obs: 45%
[4]
  Visual Weed Control (%) - 27 DAA SETFA Obs: 70%
[5]; Indaziflam 17.5 g ai/ha alone
  Visual Weed Control (%) - 28 DAA IPOHE Obs: 40%
[5]; Indaziflam 70 g ai/ha alone
  Visual Weed Control (%) - 28 DAA IPOHE Obs: 40%
[6]; Indaziflam 17.5 g ai/ha alone
  Visual Weed Control (%) - 28 DAA XANST Obs: 25%
[6]; Indaziflam 70 g ai/ha alone
  Visual Weed Control (%) - 28 DAA XANST Obs: 45%

## COc1c(Cl)ccc(-c2nc(C(=O)O)c(Cl)c(N)c2F)c1F [Compound A Acid, 4-amino-3-chloro-6-(4-chloro-2-fluoro-3-methoxyphenyl)-5-fluoropyridine-2-carboxylic acid]
[1]; [7]
  Visual Weed Control (%) - 20 DAA Obs: 75%
[1]; [8]
  Visual Weed Control (%) - 21 DAA Obs: 60%
[1]; [9]
  Visual Weed Control (%) - 20 DAA Obs: 80%
[1]; [10]
  Visual Weed Control (%) - 21 DAA Obs: 85%
[2]; [7]
  Visual Weed Control (%) - 20 DAA Obs: 15%
[3]; [8]
  Visual Weed Control (%) - 21 DAA Obs: 20%
[3]; [9]
  Visual Weed Control (%) - 20 DAA Obs: 45%
[3]; [10]
  Visual Weed Control (%) - 21 DAA Obs: 30%
[3]; Compound A Acid 17.5 g ae/ha alone
  Visual Weed Control (%) - 20 DAA Obs: 50%
[3]; Compound A Acid 21.2 g ae/ha alone
  Visual Weed Control (%) - 21 DAA Obs: 35%
